From patent publication US5122523A, “N-acylamino acid derivatives and their pharmaceutical compositions” (Banyu Pharmaceutical Co., Ltd., priority 1987, dated 1992)

Biological target: T1, human plasma renin (Homo sapiens, UniProt P00797)
T1 construct: from tissue; host or cells: human plasma
T1 sequence (P00797 67-406): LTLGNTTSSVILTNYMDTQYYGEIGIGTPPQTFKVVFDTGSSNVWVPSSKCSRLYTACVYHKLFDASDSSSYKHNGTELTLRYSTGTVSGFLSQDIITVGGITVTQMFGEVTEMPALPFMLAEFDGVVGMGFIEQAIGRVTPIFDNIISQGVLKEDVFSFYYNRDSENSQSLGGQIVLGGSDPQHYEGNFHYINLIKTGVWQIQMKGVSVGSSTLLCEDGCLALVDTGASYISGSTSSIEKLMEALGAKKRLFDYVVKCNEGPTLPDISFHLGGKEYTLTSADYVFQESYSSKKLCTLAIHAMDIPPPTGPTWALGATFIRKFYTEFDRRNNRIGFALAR
Assay: Renin inhibiting activities (human plasma, angiotensin I by radioimmunoassay)
Type: biochemical
Settings: pH7.4, 37° C., one hour
Method: TEST EXAMPLE 1: Renin inhibiting activities
To 156 μl of a 0.2M sodium phosphate buffer solution (pH7.4), 40 μl of a solution mixture of 34 mM 8-hydroxyquinoline and 100 mM disodium ethylenediamine tetraacetate, 4 μl of dimethyl sulfoxide or a dimethyl sulfoxide solution of an inhibitor and 200 μl of human plasma were added and reacted at 37° C. for one hour. Then, pepstatin was added thereto to terminate the reaction, and the amount of the resulting angiotension I was measured by radio immunoassay whereby the inhibiting activity was determined.

| Compound | IC50 [nM] |
| --- | --- |
| CCCC[C@H](NC(=O)C(CCCSCC)Cc1cccc2ccccc12)C(=O)N[C@@H](CC(C)C)[C@@H](O)CC(CC)C(=O)NCC(C)C (single isomer, unassigned) [Example 12, (2RS,4S,5S)-5-{L-N-[(2R or S)-5-ethylthio-2-(1-naphthylmethyl)pentanoyl]norleucyl}amino-2-ethyl-4-hydroxy-7-methyloctanoic acid isobutylamide] | 9.7 |
| CCCC[C@H](NC(=O)[C@H](Cc1cccc2ccccc12)CS(=O)(=O)Cc1ccco1)C(=O)N[C@@H](CC1CCCCC1)[C@@H](O)[C@@H](O)CN1CCOCC1 [Example 47, (2S,3R,4S)-4-{L-N-[(2S)-3-furfurylsulfonyl-2-(1-naphthylmethyl)propionyl]norleucyl}amino-5-cyclohexyl-1-morpholino-2,3-pentanediol] | 2.3 |
| CCCC[C@H](NC(=O)[C@H](Cc1cccc2ccccc12)CS(=O)(=O)C(C)(C)C)C(=O)N[C@@H](CC1CCCCC1)[C@@H](O)[C@@H](O)CN1CCOCC1 [Example 38, (2S,3R,4S)-4-{L-N-[(2S)-3-tert-butylsulfonyl-2-(1-naphthylmethyl)propionyl]norleucyl}amino-5-cyclohexyl-1-morpholino-2,3-pentanediol] | 5.9 |
| CCCC[C@H](NC(=O)[C@H](Cc1cccc2ccccc12)CS(=O)(=O)CC)C(=O)N[C@@H](CC(C)C)[C@@H](O)[C@@H](O)CN1CCOCC1 [Example 19, (2S,3R,4S)-4-{L-N-[(2S)-3-ethylsulfonyl-2-(1-naphthylmethyl)propionyl]norleucyl}amino-6-methyl-1-morpholino-2,3-heptanediol] | 8.3 |
| CCCC[C@H](NC(=O)[C@H](Cc1ccccc1)CS(=O)(=O)Cc1ccco1)C(=O)N[C@@H](CC1CCCCC1)[C@@H](O)[C@@H](O)CN1CCOCC1 [Example 56, (2S,3R,4S)-4-{L-N-[(2S)-2-benzyl-3-furfurylsulfonylpropionyl]norleucyl}amino-5-cyclohexyl-1-morpholino-2,3-pentanediol] | 2 |
| CCC(C[C@H](O)[C@H](CC(C)C)NC(=O)[C@H](Cc1c[nH]cn1)NC(=O)[C@H](Cc1cccc2cccnc12)CS(=O)(=O)CC)C(=O)NCC(C)C (stereo partly drawn) [Example 11, (2RS,4S,5S)-5-{L-N^α -[2(S)-3-ethylsulfonyl-2-(8-quinolylmethyl)propionyl]histidyl}amino-2-ethyl-4-hydroxy-7-methyloctanoic acid isobutylamide] | 3.1 |
| CCCC[C@H](NC(=O)[C@H](Cc1ccccc1)CS(=O)(=O)C1CCCC1)C(=O)N[C@@H](CC1CCCCC1)[C@@H](O)[C@@H](O)C[N+]1([O-])CCOCC1 [Example 52, N-[(2S,3R,4S)-4-[L-N-[(2S)-3-cyclopentanesulfonyl-2-benzylpropionyl]norleucyl]amino-5-cyclohexyl-2,3-dihydroxypentyl]morpholine N-oxide] | 3 |
| CCCC[C@H](NC(=O)[C@H](Cc1cccc2ccccc12)C[S+]([O-])CC)C(=O)N[C@@H](CC1CCCCC1)[C@@H](O)[C@@H](O)CN1CCOCC1 (stereo partly drawn) [Example 49(A), (2S,3R,4S)-4-{L-N-[(2S)-3-ethylsulfinyl-2-(1-naphthylmethyl)propionyl]norleucyl}amino-5-cyclohexyl-1-morpholino-2,3-pentanediol] | 6.1 |
| CCCC[C@H](NC(=O)[C@H](Cc1cccc2ccccc12)C[S+]([O-])c1ncccn1)C(=O)N[C@@H](CC(C)C)[C@@H](O)CC(CC)C(=O)NCC(C)C (mixture of isomers) [Example 7, (2RS,4S,5S)-5-{L-N-[(2S)-3-(pyrimidin-2-yl)sulfinyl-2-(1-naphthylmethyl)propionyl]norleucyl}amino-2-ethyl-4-hydroxy-7-methyloctanoic acid isobutylamide] | 0.83 |
| CCCC[C@H](NC(=O)[C@@H](CSc1ncccn1)Cc1cccc2ccccc12)C(=O)N[C@@H](CC(C)C)[C@@H](O)CC(CC)C(=O)NCC(C)C (mixture of isomers) [Example 6, (2RS,4S,5S)-5-{L-N-[(2S)-3-(pyrimidin-2-yl)thio-2-(1-naphthylmethyl)propionyl]norleucyl}amino-2-ethyl-4-hydroxy-7-methyloctanoic acid isobutylamide] | 1.6 |
| CCCC[C@H](NC(=O)[C@@H](CSc1ncccn1)Cc1cccc2ccccc12)C(=O)N[C@@H](CC1CCCCC1)[C@@H](O)[C@@H](O)CN1CCOCC1 [Example 40, (2S,3R,4S)-4-{L-N-[(2S)-2-(1-naphthylmethyl)-3-(pyrimidin-2-yl)thiopropionyl]norleucyl}amino-5-cyclohexyl-1-morpholino-2,3-pentanediol] | 5.3 |
| CCS(=O)(=O)C[C@@H](Cc1cccc2ccccc12)C(=O)N[C@@H](Cc1c[nH]cn1)C(=O)N[C@@H](CC1CCCCC1)[C@@H](O)[C@@H](O)CN1CCOCC1 [Example 31, (2S,3R,4S)-4-{L-N^α -[(2S)-3-ethylsulfonyl-2-(1-naphthylmethyl)propionyl]histidyl}amino-5-cyclohexyl-1-morpholino-2,3-pentanediol] | 4.2 |
| CCCC[C@H](NC(=O)[C@H](Cc1cccc2cccnc12)CS(=O)(=O)CC)C(=O)N[C@@H](CC(C)C)[C@@H](O)CC(CC)C(=O)NCC(C)C (mixture of isomers) [Example 10, (2RS,4S,5S)-5-{L-N-[(2S)-3-ethylsulfonyl-2-(8-quinolylmethyl)propionyl]norleucyl}amino-2-ethyl-4-hydroxy-7-methyloctanoic acid isobutylamide] | 2 |
| CC(C)[S+]([O-])C[C@@H](Cc1cccc2ccccc12)C(=O)N[C@@H](Cc1c[nH]cn1)C(=O)N[C@@H](CC1CCCCC1)[C@@H](O)[C@@H](O)CN1CCOCC1 (stereo partly drawn) [Example 35, (2S,3R,4S)-4-{L-N^α -[(2S)-3-isopropylsulfinyl-2-(1-naphthylmethyl)propionyl]histidyl}amino-5-cyclohexyl-1-morpholino-2,3-pentanediol] | 5.9 |
| CCCC[C@H](NC(=O)[C@@H](Cc1cccc2ccccc12)CS(=O)(=O)CC)C(=O)N[C@@H](CC(C)C)[C@@H](O)C[C@@H](CC)C(=O)NCCN1CCOCC1 (single isomer, unassigned) [Example 8, (2R or S,4S,5S)-5-{L-N-[(2R or S)-3-ethylsulfonyl-2-(1-naphthylmethyl)propionyl]norleucyl}amino-2-ethyl-4-hydroxy-7-methyloctanoic acid 2-morpholinoethylamide] | 1.5 |
| CCCC[C@H](NC(=O)[C@@H](CSc1nncs1)Cc1cccc2ccccc12)C(=O)N[C@@H](CC(C)C)[C@@H](O)CC(CC)C(=O)NCC(C)C (stereo partly drawn) [Example 5, (2RS,4S,5S),-5-{L-N-[(2S)-3-(1,3,4-thiadiazol-2-yl)thio-2-(1-naphthylmethyl)propionyl]norleucyl}amino-2-ethyl-4-hydroxy-7-methyloctanoic acid isobutylamide] | 1.4 |
| CCCC[C@H](NC(=O)[C@H](Cc1cccc2ccccc12)CS(=O)(=O)c1ncccn1)C(=O)N[C@@H](CC1CCCCC1)[C@@H](O)[C@@H](O)CN1CCOCC1 [Example 41, (2S,3R,4S)-4-{L-N-[(2S)-2-(1-naphthylmethyl)-3-(pyrimidin-2-yl)sulfonylpropionyl]norleucyl}amino-5-cyclohexyl-1-morpholino-2,3-pentanediol] | 1.7 |
| CCCC[C@H](NC(=O)C(Cc1cccc2ccccc12)CS(=O)(=O)CC)C(=O)N[C@@H](CC(C)C)[C@@H](O)CC(CC)C(=O)NCC(C)C (single isomer, unassigned) [Example 1, (2RS,4S,5S)-5-{L-N-[(2R or S)-3-ethylsulfonyl-2-(1-naphthylmethyl)propionyl]norleucyl}amino-2-ethyl-4-hydroxy-7-methyloctanoic acid isobutylamide] | 0.5 |
| CCCC[C@H](NC(=O)[C@H](Cc1cccc2ccccc12)C[S+]([O-])c1ncccn1)C(=O)N[C@@H](CC1CCCCC1)[C@@H](O)[C@@H](O)CN1CCOCC1 (single isomer, unassigned) [Example 42] | 3.6 |
| CCCC[C@H](NC(=O)[C@H](Cc1cccc2ccccc12)CS(=O)(=O)CC)C(=O)N[C@@H](CC1CCCCC1)C(O)C(O)CSC (single isomer, unassigned) [Example 21, (2RS,3R or S,4S)-4-{L-N-[(2S)-3-ethylsulfonyl-2-(1-naphthylmethyl)propionyl]norleucyl}amino-5-cyclohexyl-1-methylthio-2,3-pentanediol] | 8.9 |
| CCCC[C@H](NC(=O)C(Cc1cccc2ccccc12)CS(=O)(=O)c1nnnn1C)C(=O)N[C@@H](CC(C)C)[C@@H](O)C[C@H](CC)C(=O)NCC(C)C (single isomer, unassigned) [Example 4, (2S,4S,5S)-5-{L-N-[(2R or S)-3-(1-methyltetrazol-5-yl)sulfonyl-2-(1-naphthylmethyl)propionyl]norleucyl}amino-2-ethyl-4-hydroxy-7-methyloctanoic acid isobutylamide] | 0.96 |
| CCCC[C@H](NC(=O)C(CCCS(=O)(=O)CC)Cc1cccc2ccccc12)C(=O)N[C@@H](CC(C)C)[C@@H](O)CC(CC)C(=O)NCC(C)C (single isomer, unassigned) [Example 13, (2RS,4S,5S)-5-{L-N-[(2R or S)-5-ethylsulfonyl-2-(1-naphthylmethyl)pentanoyl]norleucyl}amino-2-ethyl-4-hydroxy-7-methyloctanoic acid isobutylamide] | 1.9 |
